Target: T1, Full-length USP19 (Homo sapiens, UniProt O94966)
T1 construct: Full-length USP19 was purchased from Boston Biochem (E-576); purchased Boston Biochem E-576
T1 sequence (O94966 1-1318): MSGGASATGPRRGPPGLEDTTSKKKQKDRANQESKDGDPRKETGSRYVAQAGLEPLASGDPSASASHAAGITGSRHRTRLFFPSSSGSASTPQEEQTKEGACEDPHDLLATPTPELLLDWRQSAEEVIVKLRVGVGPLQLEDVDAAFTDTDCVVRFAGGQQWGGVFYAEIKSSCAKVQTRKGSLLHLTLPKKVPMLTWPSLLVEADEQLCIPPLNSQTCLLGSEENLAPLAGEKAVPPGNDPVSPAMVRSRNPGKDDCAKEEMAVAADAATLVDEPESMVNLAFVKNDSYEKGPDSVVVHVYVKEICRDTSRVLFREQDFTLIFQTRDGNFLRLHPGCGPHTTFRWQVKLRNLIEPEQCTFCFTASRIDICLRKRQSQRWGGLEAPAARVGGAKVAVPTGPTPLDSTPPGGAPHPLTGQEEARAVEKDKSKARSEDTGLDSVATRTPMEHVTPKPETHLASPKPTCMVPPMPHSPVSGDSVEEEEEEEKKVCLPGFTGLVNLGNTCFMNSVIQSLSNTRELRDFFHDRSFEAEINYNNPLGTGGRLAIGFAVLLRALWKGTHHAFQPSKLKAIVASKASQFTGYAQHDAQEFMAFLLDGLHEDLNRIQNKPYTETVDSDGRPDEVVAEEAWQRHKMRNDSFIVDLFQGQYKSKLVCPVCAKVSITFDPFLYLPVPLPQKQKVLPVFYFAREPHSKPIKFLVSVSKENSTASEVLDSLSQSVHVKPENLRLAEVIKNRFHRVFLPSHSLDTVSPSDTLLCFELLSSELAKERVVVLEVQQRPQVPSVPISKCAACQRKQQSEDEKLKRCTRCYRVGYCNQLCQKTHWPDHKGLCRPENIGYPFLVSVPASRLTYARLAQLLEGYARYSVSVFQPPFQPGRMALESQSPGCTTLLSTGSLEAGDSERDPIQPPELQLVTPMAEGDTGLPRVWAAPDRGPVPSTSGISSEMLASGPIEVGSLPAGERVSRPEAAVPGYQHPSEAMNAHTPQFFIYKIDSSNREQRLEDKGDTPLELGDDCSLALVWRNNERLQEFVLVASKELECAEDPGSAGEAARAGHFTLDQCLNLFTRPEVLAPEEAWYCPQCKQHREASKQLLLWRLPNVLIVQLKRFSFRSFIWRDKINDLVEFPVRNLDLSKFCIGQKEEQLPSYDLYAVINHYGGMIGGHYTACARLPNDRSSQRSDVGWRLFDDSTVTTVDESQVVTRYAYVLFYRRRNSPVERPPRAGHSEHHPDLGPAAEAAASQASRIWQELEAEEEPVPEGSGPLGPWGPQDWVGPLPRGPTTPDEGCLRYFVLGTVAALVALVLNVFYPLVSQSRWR
Test: USP19 fluorescence polarisation (FP) assay, Ubiquitin-Lys-TAMRA substrate
Type: biochemical
Conditions: average of at least two duplicate experiments
In short: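 Fluorescence polarisation (excitation 530 nm, parallel and perpendicular emission at 575 nm) was recorded every 15 min for 90 min after adding the ubiquitin-Lys-TAMRA isopeptide (500 nM as dispensed). Beforehand, the full-length enzyme (2.5 nM as dispensed) sat 30 min at RT with compound diluted from 200 μM to 2 μM in HEPES pH 7.4 buffer with 150 mM NaCl, 5 mM DTT, 0.05% BSA and 0.05% CHAPS. Values normalised to uninhibited wells gave IC50s by non-linear fitting, each the mean of two or more duplicate runs.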

Compound | IC50
CN[C@@H]1CCN(C(=O)N2CC[C@@H](Cn3ccc(-c4ccccc4F)cc3=O)C3(CCCC3)C2)[C@H](c2ccccc2)C1 [Example 55, 4-(2-Fluorophenyl)-1-(((R)-7-((2S,4R)-4-(methylamino)-2-phenylpiperidine-1-carbonyl)-7-azaspiro[4.5]decan-10-yl)methyl)pyridin-2(1H)-one] | < 10 nM
CN[C@@H]1CCN(C(=O)N2CC[C@@H](Cn3cnc(-c4ccccc4)cc3=O)C3(CCCC3)C2)[C@H](c2ccccc2)C1 [Example 56, 3-(((R)-7-((2S,4R)-4-(Methylamino)-2-phenylpiperidine-1-carbonyl)-7-azaspiro[4.5]decan-10-yl)methyl)-6-phenylpyrimidin-4(3H)-one] | < 10 nM
N[C@@H]1CCN(C(=O)N2CCC(F)(Cn3cnc(-c4ccccc4)cc3=O)C3(CCCC3)C2)[C@H](c2ccccc2)C1 (stereo partly drawn) [Example 57, 3-((7-((2S,4R)-4-Amino-2-phenylpiperidine-1-carbonyl)-10-fluoro-7-azaspiro[4.5]decan-10-yl)methyl)-6-phenylpyrimidin-4(3H)-one] | < 10 nM
CN[C@@H]1CCN(C(=O)N2CC[C@](Cn3ccc(-c4ccccc4)cc3=O)(OC)C3(CCCC3)C2)[C@H](c2ccccc2)C1 [Example 58, 1-(((S)-10-Methoxy-7-((2S,4R)-4-(methylamino)-2-phenylpiperidine-1-carbonyl)-7-azaspiro[4.5]decan-10-yl)methyl)-4-phenylpyridin-2(1H)-one] | < 10 nM
COc1ccccc1-c1ccn(C[C@@H]2CCN(C(=O)N3CC[C@@H](N)C[C@H]3c3ccccc3)CC23CCCC3)c(=O)c1 [Example 59, 1-(((R)-7-((2S,4R)-4-Amino-2-phenylpiperidine-1-carbonyl)-7-azaspiro[4.5]decan-10-yl)methyl)-4-(2-methoxyphenyl)pyridin-2(1H)-one] | < 10 nM
Cc1ccccc1-c1ccn(C[C@@H]2CCN(C(=O)N3CC[C@@H](N)C[C@H]3c3ccccc3)CC23CCCC3)c(=O)c1 [Example 60, 1-(((R)-7-((2S,4R)-4-Amino-2-phenylpiperidine-1-carbonyl)-7-azaspiro[4.5]decan-10-yl)methyl)-4-(o-tolyl)pyridin-2(1H)-one] | < 10 nM
N[C@@H]1CCN(C(=O)N2CC[C@@H](Cn3ccc(-c4ccccc4F)cc3=O)C3(CCCC3)C2)[C@H](c2ccccc2)C1 [Example 61, 1-(((R)-7-((2S,4R)-4-Amino-2-phenylpiperidine-1-carbonyl)-7-azaspiro[4.5]decan-10-yl)methyl)-4-(2-fluorophenyl)pyridin-2(1H)-one] | < 10 nM
CCN[C@@H]1CCN(C(=O)N2CC[C@@H](Cn3cnc(-c4ccccc4)cc3=O)C3(CCCC3)C2)[C@H](c2ccccc2)C1 [Example 62, 3-(((R)-7-((2S,4R)-4-(Ethylamino)-2-phenylpiperidine-1-carbonyl)-7-azaspiro[4.5]decan-10-yl)methyl)-6-phenylpyrimidin-4(3H)-one] | < 10 nM
CN[C@@H]1CCN(C(=O)N2CC[C@@H](Cn3cnc(-c4ccccc4)cc3=O)C3(CCCC3)C2)[C@H](c2cccc(F)c2)C1 [Example 63, 3-(((R)-7-((2S,4R)-2-(3-Fluorophenyl)-4-(methylamino)piperidine-1-carbonyl)-7-azaspiro[4.5]decan-10-yl)methyl)-6-phenylpyrimidin-4(3H)-one] | < 10 nM
CN[C@@H]1CCN(C(=O)N2CC[C@@H](Cn3ccc(-c4ccccc4)cc3=O)C3(CCCC3)C2)[C@H](c2cccc(F)c2)C1 [Example 64, 1-(((R)-7-((2S,4R)-2-(3-Fluorophenyl)-4-(methylamino)piperidine-1-carbonyl)-7-azaspiro[4.5]decan-10-yl)methyl)-4-phenylpyridin-2(1H)-one] | < 10 nM
N[C@@H]1CCN(C(=O)N2CC[C@@H](Cn3ccc(-c4ccccc4)cc3=O)C3(CCCC3)C2)[C@H](c2cccc(F)c2)C1 [Example 65, 1-(((R)-7-((2S,4R)-4-Amino-2-(3-fluorophenyl)piperidine-1-carbonyl)-7-azaspiro[4.5]decan-10-yl)methyl)-4-phenylpyridin-2(1H)-one] | < 10 nM

Reference: patent US20240327382A1 (ALMAC DISCOVERY LIMITED, priority 2021, published 2024)
